The target of one test is HLA-A*0201 (HLA-A2.1) (Homo sapiens, UniProt P04439, D140Y/D185E/D98H/E176V/E277Q/G131W/G231S/I119V/I121R/I166T/I218V/L300P/L318F/N151K/N90K/P208A/P217A/Q86G/Q94H/R138H/R169H/T345S). The test can be described thus: biochemical. In kind it is binding.
A further test has as its system HLA-A24. It is filed as binding, human.
The next test concerns the target HLA-A1 (A*0101) (Homo sapiens, UniProt P04439, A114D/A174V/A182V/D101N/D185E/E176A/E190D/L180R/Q94H/R68K/S129P/T187R/V100A/V91M/W191G). The test can be described thus: biochemical. It is filed as binding.
The target in the next test is A*2902 (Homo sapiens, UniProt P04439, A270S/D101N/D185E/E176V/E277Q/E87Q/F33T/G231S/H175R/I121M/I218V/I322F/K168Q/L300P/L318F/M331R/P208A/P217A/Q86L/T323A/T345S/V100A/V358M). As to the kind of experiment: biochemical. In kind it is binding.
A further test addresses A*3002 (Homo sapiens, UniProt P04439, D101N/D140H/D185E/E176R/F33S/G80R/H175R/K168Q/Q94H/R138E/R41S/V100E). As to the kind of experiment: biochemical. In kind it is binding.

Like-named read-outs stand apart in the source and are kept apart here. No end group written: not given here.

A*3002, sequence (P04439 whole entry, looked up, the tested form may be a part, stated change not applied): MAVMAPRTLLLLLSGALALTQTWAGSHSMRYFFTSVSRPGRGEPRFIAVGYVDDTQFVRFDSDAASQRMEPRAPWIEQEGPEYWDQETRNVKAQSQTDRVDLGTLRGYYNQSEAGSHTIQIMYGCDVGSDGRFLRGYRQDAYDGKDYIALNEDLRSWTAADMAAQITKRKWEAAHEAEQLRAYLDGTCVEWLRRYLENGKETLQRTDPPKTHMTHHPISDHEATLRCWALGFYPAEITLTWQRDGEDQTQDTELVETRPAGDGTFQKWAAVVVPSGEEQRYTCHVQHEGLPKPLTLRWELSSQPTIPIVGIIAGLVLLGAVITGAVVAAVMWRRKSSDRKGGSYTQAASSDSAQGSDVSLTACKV

Take FLLLKYRA: the “binding to HLA-A2.1 (column 3; no allele head shown for these rows)” value in the test with HLA-A*0201 (HLA-A2.1) is reported as 0.0007. Also, the “binding to HLA-A24 (column 6; no allele head shown for these rows)” value in the test with HLA-A24 is given as 0.
The like results for LAETSYVKVL were, in that order, 0 and <0.0002.
The like results for GLVCVQAA were, in that order, 0.0008 and 0.
In the case of LSDISEYRHY [Peptide 1549.45], the IC50 on HLA-A1 (A*0101) was 27 nM; at A*2902, 14500 nM.
As for GASAFPTTI, in the test with HLA-A*0201 (HLA-A2.1), the “binding to HLA-A2.1 (column 3; no allele head shown for these rows)” value was 0. In addition, the “binding to HLA-A24 (column 6; no allele head shown for these rows)” value with HLA-A24 is reported as <0.0002.
For LFTDLRIVY [Peptide 78.0378], the IC50 against A*2902 worked out at 12 nM; at A*3002, 89 nM.
Take QAATSSSSPL: in the test with HLA-A*0201 (HLA-A2.1), the “binding to HLA-A2.1 (column 3; no allele head shown for these rows)” value was found to be 0. Further, the “binding to HLA-A24 (column 6; no allele head shown for these rows)” value with HLA-A24 was <0.0002.
Taken in the same sequence, the figures for AATSSSSPL were 0 and <0.0002.
Consider YSRIRELRY [Peptide 78.0253], for which the IC50 against HLA-A1 (A*0101) is 308 nM; against A*2902, 6280 nM.
As to GASSLPTTM, in the test with HLA-A*0201 (HLA-A2.1), the “binding to HLA-A2.1 (column 3; no allele head shown for these rows)” value is listed as 0. For the same substance, in the test with HLA-A24, the “binding to HLA-A24 (column 6; no allele head shown for these rows)” value came to 0.0010.
The like results for YLEYGRCRTV were, in that order, 0.0097 and 0.
Regarding ALGLVCVQAA, the “binding to HLA-A2.1 (column 3; no allele head shown for these rows)” value with HLA-A*0201 (HLA-A2.1) is on record as 0.0002. For the same substance, the “binding to HLA-A24 (column 6; no allele head shown for these rows)” value in the test with HLA-A24 came out at 0.
Turning to VLGTLEEV, the “binding to HLA-A2.1 (column 3; no allele head shown for these rows)” value with HLA-A*0201 (HLA-A2.1) worked out at 0.0088. Moreover, the “binding to HLA-A24 (column 6; no allele head shown for these rows)” value with HLA-A24 amounted to 0.
Take GLLGDNQIM: in the test with HLA-A*0201 (HLA-A2.1), the A2.1 is 0.0051 and the “binding to HLA-A2.1 (column 3; no allele head shown for these rows)” value amounted to 0.0054. The “binding to HLA-A24 (column 6; no allele head shown for these rows)” value in the test on HLA-A24 was determined as 0.0002.
Consider VADLVGFLL, for which the “binding to HLA-A2.1 (column 3; no allele head shown for these rows)” value with HLA-A*0201 (HLA-A2.1) was 0.0011. Moreover, the “binding to HLA-A24 (column 6; no allele head shown for these rows)” value in the test with HLA-A24 was found to be 0.0007.
For the substance RTDSVILNVLY [Peptide 9012.0162], the IC50 at HLA-A1 (A*0101) is 14 nM; at A*2902 it was 954 nM; against A*3002, 8.5 nM.
Consider LYPEPTDLY [Peptide 78.0354], for which the IC50 on HLA-A1 (A*0101) is > 20000 nM; at A*3002, 1470 nM.
Take YSDREIIY [Peptide 9012.0096]: the values for the IC50 at HLA-A1 (A*0101) and at A*2902 were 93 nM and > 20000 nM, respectively.
KVADLVGFL: the “binding to HLA-A2.1 (column 3; no allele head shown for these rows)” value with HLA-A*0201 (HLA-A2.1) was determined as 0.0091. Moreover, the “binding to HLA-A24 (column 6; no allele head shown for these rows)” value in the test with HLA-A24 came to 0.
For KVAELVHFL, the “binding to HLA-A2.1 (column 3; no allele head shown for these rows)” value with HLA-A*0201 (HLA-A2.1) is on record as 0.073. In the test on HLA-A24, the “binding to HLA-A24 (column 6; no allele head shown for these rows)” value is on record as 0.0005.
On to RFHNIGGRW [Peptide 78.0369], for which the figures for the IC50 against HLA-A1 (A*0101), on A*2902 and at A*3002 were > 20000 nM, 12200 nM and 13 nM, respectively.
In the case of QIMPKTGFLII, the “binding to HLA-A2.1 (column 3; no allele head shown for these rows)” value with HLA-A*0201 (HLA-A2.1) turned out to be 0.0003. In the test with HLA-A24, the “binding to HLA-A24 (column 6; no allele head shown for these rows)” value is on record as 0.0030.
Take AAISRKMVEL: the “binding to HLA-A2.1 (column 3; no allele head shown for these rows)” value in the test with HLA-A*0201 (HLA-A2.1) is on record as 0. The “binding to HLA-A24 (column 6; no allele head shown for these rows)” value in the test with HLA-A24 is on record as 0.
Consider KAGLLIIVL, for which, in the test with HLA-A24, the “binding to HLA-A24 (column 6; no allele head shown for these rows)” value is on record as 0.
Regarding GNEKTYFKY [Peptide 86.0160], the IC50 against HLA-A1 (A*0101) turned out to be 2300 nM; on A*2902, 319 nM; against A*3002, 739 nM.
As to EYRHYQYSLY [Peptide 78.0183], the IC50 against HLA-A1 (A*0101) was found to be 2270 nM; on A*2902, 2370 nM; at A*3002, 130 nM.
As for KALKFYSKI [Peptide E6-72], in the test with HLA-A24, the “binding class for HLA-A24” value is “high affinity (key: high affinity: >0.1; intermediate affinity: 0.1-0.01; low affinity: 0.01-0.001)”.
FYSKVRKYRY [Peptide 78.0176]: the IC50 against HLA-A1 (A*0101) is > 20000 nM; against A*2902, 146 nM; against A*3002, 326 nM.
For ELDPVDLLCY [Peptide 78.0017], the IC50 is 26 nM against HLA-A1 (A*0101) and 12700 nM against A*3002.
Taken in the same sequence, the figures for RFHSIAGQY [Peptide 78.0376] were > 20000 nM and 1 nM.
In the case of AALSRKVAEL, the “binding to HLA-A24 (column 6; no allele head shown for these rows)” value with HLA-A24 came out at 0.
As to QAEQATSNYY [Peptide 78.0022], the results for the IC50 at A*2902 and against A*3002 were > 20000 nM and 1440 nM, respectively.
For RAHYNIVTF [Peptide E7-49], the “binding class for HLA-A24” value in the test with HLA-A24 was “intermediate affinity (key: high affinity: >0.1; intermediate affinity: 0.1-0.01; low affinity: 0.01-0.001)”.
For ISEYRHYQY [Peptide 78.0254], the IC50 came out at 46 nM against HLA-A1 (A*0101), 853 nM against A*2902 and 81 nM at A*3002.
With MLETLNNTEY [Peptide 1580.24], the IC50 was 36 nM against HLA-A1 (A*0101) and 1120 nM at A*3002.
Turning to VTETLEEITGY [Peptide 9012.0178], the results for the IC50 on HLA-A1 (A*0101), on A*2902 and against A*3002 were 20 nM, > 20000 nM and 11300 nM, respectively.
Taken in the same sequence, the figures for LTEITGYLY [Peptide 9012.0126] were 16 nM, 25 nM and 151 nM.
The like results for AFTDLTIVY [Peptide 78.0348] were, in that order, 31 nM, 36 nM and 71 nM.
As for VAELVHFLLL, the “binding to HLA-A24 (column 6; no allele head shown for these rows)” value in the test on HLA-A24 came to 0.0018.
As for LFYSKVRKY [Peptide 78.0384], the IC50 was > 20000 nM on HLA-A1 (A*0101), 201 nM at A*2902 and 35 nM on A*3002.
Taken in the same sequence, the figures for KFYSKISEY [Peptide 78.0363] were > 20000 nM, 1590 nM and 9.5 nM.
The like results for QAEPDRAHY [Peptide 78.0244] were, in that order, 3270 nM, > 20000 nM and 16 nM.
The like results for EYRHYNYSVY [Peptide 78.0180] were, in that order, > 20000 nM, 16000 nM and 253 nM.
Take LVFGIELMEV: in the test on HLA-A24, the “binding to HLA-A24 (column 6; no allele head shown for these rows)” value is 0.
As to YSKVSEFRWY [Peptide 78.0009], the results for the IC50 at HLA-A1 (A*0101) and against A*2902 were 539 nM and 4510 nM, respectively.
For ATLERTEVY [Peptide 78.0252], the IC50 against HLA-A1 (A*0101) stood at 656 nM; against A*2902 it was 557 nM; against A*3002, 26 nM.
Consider F185.01 (LYSACFWWL) [Peptide F185.01], for which the IC50 in the test with HLA-A24 (read-out: A*2402) was determined as 28 nM.
Consider LKEYVLDLY [Peptide 78.0250], for which the IC50 against HLA-A1 (A*0101) was > 20000 nM; against A*2902, 3310 nM; against A*3002, 76 nM.
Consider NTDILTVTY [Peptide 1593.17], for which the IC50 against HLA-A1 (A*0101) worked out at 22 nM; against A*3002, 2000 nM.
As to “AYIDNVYKF [Peptide 979-01, reference compound]”, the “apparent % of available receptor (active MHC)” value in the test on HLA-A24 is recorded as 8.3%. Also, the Kd at HLA-A24 (read-out: KD from Scatchard experiments, A24) was determined as 136 nM; on HLA-A24 (read-out: apparent KD from cold inhibition experiments, A24), 30 nM.
Take RFHNIMGRW [Peptide 78.0381]: the IC50 on HLA-A1 (A*0101) was > 20000 nM; against A*2902, > 20000 nM; at A*3002, 27 nM.
As for ESNSLKCLRY [Peptide 1580.26], the IC50 on HLA-A1 (A*0101) was 359 nM; on A*2902 it was 7510 nM; against A*3002 it was 604 nM.

The values are drawn from US9340577B2, “HLA binding motifs and peptides and their uses” (priority 1992, dated 2016).
